Reference: patent US20260015325A1, “ALKOXY HETEROARYL- CARBOXAMIDE OR THIOAMIDE COMPOUNDS” (SYNGENTA CROP PROTECTION AG, priority 2022, published 2026)

Legend:
Type in all cases: in vivo
[1] = system: Myzus persicae (Green Peach Aphid); experiment: Myzus persicae (Green Peach Aphid): feeding/contact activity, sunflower leaf discs; conditions: foliar, 144 h, application rate of 200 ppm, mixed ages on sprayed sunflower leaf discs, 6 days after infestation, read-out: mortality
Procedure: Example B6: Myzus persicae (Green Peach Aphid): Feeding/Contact Activity
Sunflower leaf discs were placed onto agar in a 24-well microtiter plate and sprayed with aqueous test solutions prepared from 10′000 ppm DMSO stock solutions. After drying, the leaf discs were infested with an aphid population of mixed ages. The samples were assessed for mortality 6 days after infestation.

[2] = system: Bemisia tabaci (Cotton White Fly); experiment: Bemisia tabaci (Cotton White Fly): feeding/contact activity, cotton leaf discs; conditions: foliar, 144 h, application rate of 200 ppm, adult white flies on sprayed cotton leaf discs, 6 days after incubation, read-out: mortality
Procedure: Example B1: Bemisia tabaci (Cotton White Fly): Feeding/Contact Activity
Cotton leaf discs were placed on agar in 24-well microtiter plates and sprayed with aqueous test solutions prepared from 10′000 ppm DMSO stock solutions. After drying the leaf discs were infested with adult white flies. The samples were checked for mortality 6 days after incubation.

[3] = system: Myzus persicae (Green Peach Aphid); experiment: Myzus persicae (Green Peach Aphid): systemic activity, pea seedlings; conditions: 144 h, test rate of 24 ppm, systemic, roots of infested pea seedlings in test solution, 6 days, read-out: mortality
Procedure: Example B7: Myzus persicae (Green Peach Aphid). Systemic Activity
Roots of pea seedlings infested with an aphid population of mixed ages were placed directly into aqueous test solutions prepared from 10′000 DMSO stock solutions. The samples were assessed for mortality 6 days after placing seedlings into test solutions.

[4] = system: Myzus persicae (Green Peach Aphid); experiment: Myzus persicae (Green Peach Aphid): intrinsic activity, sucrose solution; conditions: 120 h, test rate of 12 ppm, intrinsic, mixed with sucrose solution under Parafilm, 5 days after infestation, read-out: mortality
Text: Example B8: Myzus persicae (Green Peach Aphid). Intrinsic Activity
Test compounds prepared from 10′000 ppm DMSO stock solutions were applied by pipette into 24-well microtiter plates and mixed with sucrose solution. The plates were closed with a stretched Parafilm. A plastic stencil with 24 holes was placed onto the plate and infested pea seedlings were placed directly on the Parafilm. The infested plate was closed with a gel blotting paper and another plastic stencil and then turned upside down. The samples were assessed for mortality 5 days after infestation.

[5] = system: Tetranychus urticae (Two-Spotted Spider Mite); experiment: whole plant or invertebrate; conditions: foliar, 192 h, application rate of 200 ppm, mixed population (mobile stages) on sprayed bean leaf discs, 8 days after infestation, read-out: mortality
Procedure: Example B11: Tetranychus urticae (Two-Spotted Spider Mite): Feeding/Contact Activity
Bean leaf discs on agar in 24-well microtiter plates were sprayed with aqueous test solutions prepared from 10′000 ppm DMSO stock solutions. After drying the leaf discs were infested with a mite population of mixed ages. The samples were assessed for mortality on mixed population (mobile stages) 8 days after infestation.

[6] = system: Euschistus heros (Neotropical Brown Stink Bug); experiment: Euschistus heros (Neotropical Brown Stink Bug), soybean leaves; conditions: 120 h, application rate of 200 ppm, N2 nymphs on sprayed soybean leaves, 5 days after infestation, read-out: effect in at least one of the two categories (mortality or growth inhibition)
Procedure: Example B4: Euschistus heros (Neotropical Brown Stink Bug)
Soybean leaves on agar in 24-well microtiter plates were sprayed with aqueous test solutions prepared from 10′000 ppm DMSO stock solutions. After drying the leaves were infested with N2 nymphs. The samples were assessed for mortality and growth inhibition in comparison to untreated samples 5 days after infestation.

| Structure (SMILES) | mortality at 200 ppm [1] | mortality at 200 ppm [2] | mortality at 24 ppm [3] | mortality at 12 ppm [4] | mortality at 200 ppm [5] | percent effect (mortality or growth inhibition) at 200 ppm [6] |
| --- | --- | --- | --- | --- | --- | --- |
| Cc1cnc(OC[C@H](C)NS(=O)(=O)C(F)(F)F)cc1C(=O)NC1CCN(CC(F)(F)F)C1=O (stereo partly drawn) [Compound P-70, 5-methyl-N-[2-oxo-1-(2,2,2-trifluoroethyl)pyrrolidin-3-yl]-2-[(2S)-2-(trifluoromethylsulfonylamino)propoxy]pyridine-4-carboxamide] | ≥ 80% | ≥ 80% |  |  |  |  |
| C[C@@H](COc1cnc(Cl)c(C(=O)NC(C)(C)C#N)c1)NS(=O)(=O)C(F)(F)F [Compound P-57, 2-chloro-N-(1-cyano-1-methyl-ethyl)-5-[(2S)-2-(trifluoromethylsulfonylamino)propoxy]pyridine-3-carboxamide] | ≥ 80% | ≥ 80% | ≥ 80% | ≥ 80% | ≥ 80% |  |
| O=C(NC1CC1)c1cc(OCCNS(=O)(=O)C(F)(F)F)cnc1Cl [Compound P-17, 2-chloro-N-cyclopropyl-5-[2-(trifluoromethylsulfonylamino)ethoxy]pyridine-3-carboxamide] | ≥ 80% | ≥ 80% |  | ≥ 80% |  |  |
| CC(C)C(=O)OCN([C@@H](C)COc1cnc(Cl)c(C(=O)NC2CC2)c1)S(=O)(=O)C(F)(F)F [Compound P-13, [[(1S)-2-[[6-chloro-5-(cyclopropylcarbamoyl)-3-pyridyl]oxy]-1-methyl-ethyl]-(trifluoromethylsulfonyl)amino]methyl 2-methylpropanoate] | ≥ 80% | ≥ 80% | ≥ 80% | ≥ 80% | ≥ 80% |  |
| COCN([C@@H](C)COc1cnc(C)c(C(=O)NC2CC2)c1)S(=O)(=O)C(F)(F)F [Compound P-61, N-cyclopropyl-5-[(2S)-2-[methoxymethyl (trifluoromethylsulfonyl)amino]propoxy]-2-methyl-pyridine-3-carboxamide] |  |  |  |  |  | ≥ 80% |
| C[C@@H](COc1cnc(Cl)c(C(=O)Nc2ccccc2)c1)NS(=O)(=O)C(F)(F)F [Compound P-56, 2-chloro-N-phenyl-5-[(2S)-2-(trifluoromethylsulfonylamino)propoxy]pyridine-3-carboxamide] |  | ≥ 80% |  |  | ≥ 80% |  |
| C[C@@H](COc1cnc(Cl)c(C(=O)NC2CON(CC(F)(F)F)C2=O)c1)NS(=O)(=O)C(F)(F)F (stereo partly drawn) [Compound P-54, 2-chloro-N-[3-oxo-2-(2,2,2-trifluoroethyl)isoxazolidin-4-yl]-5-[(2S)-2-(trifluoromethylsulfonylamino)propoxy]pyridine-3-carboxamide] | ≥ 80% | ≥ 80% | ≥ 80% | ≥ 80% |  |  |
| COCN([C@@H](C)COc1cc(C(=O)NC2(C#N)CC2)c(Br)cn1)S(=O)(=O)C(F)(F)F [Compound P-82, 5-bromo-N-(1-cyanocyclopropyl)-2-[(2S)-2-[methoxymethyl(trifluoromethylsulfonyl)amino]propoxy]pyridine-4-carboxamide] |  | ≥ 80% |  |  | ≥ 80% |  |
| C[C@@H](COc1cc(C(=O)NC2(C#N)CC2)c(Br)cn1)NS(=O)(=O)C(F)(F)F [Compound P-86, 5-bromo-N-(1-cyanocyclopropyl)-2-[(2S)-2-(trifluoromethylsulfonylamino)propoxy]pyridine-4-carboxamide] |  | ≥ 80% |  |  |  |  |
| C[C@@H](COc1cnc(Cl)c(C(=O)NCC2(C#N)CC2)c1)NS(=O)(=O)C(F)(F)F [Compound P-46, 2-chloro-N-[(1-cyanocyclopropyl)methyl]-5-[(2S)-2-(trifluoromethylsulfonylamino)propoxy]pyridine-3-carboxamide] | ≥ 80% | ≥ 80% |  |  |  |  |
| Cc1ncc(OC[C@H](C)NS(=O)(=O)C(F)(F)F)cc1C(=O)NC(C)C1CC1 (stereo partly drawn) [Compound P-31, N-(1-cyclopropylethyl)-2-methyl-5-[(2S)-2-(trifluoromethylsulfonylamino)propoxy]pyridine-3-carboxamide] |  | ≥ 80% |  |  | ≥ 80% |  |
| C[C@@H](COc1cnc(Cl)c(C(=O)NC(C)(C)C)c1)NS(=O)(=O)C(F)(F)F [Compound P-11, N-tert-butyl-2-chloro-5-[(2S)-2-(trifluoromethylsulfonylamino)propoxy]pyridine-3-carboxamide] | ≥ 80% |  |  | ≥ 80% | ≥ 80% |  |
| Cc1ncc(OC[C@H](C)NS(=O)(=O)C(F)(F)F)cc1C(=O)NC12CC(C1)C2 [Compound P-26, N-(1-bicyclo[1.1.1]pentanyl)-2-methyl-5-[(2S)-2-(trifluoromethylsulfonylamino)propoxy]pyridine-3-carboxamide] | ≥ 80% |  | ≥ 80% | ≥ 80% | ≥ 80% |  |
| Cc1ncc(OC[C@H](C)NS(=O)(=O)C(F)(F)F)cc1C(=O)NCc1ccc(Cl)cn1 [Compound P-28, N-[(5-chloro-2-pyridyl)methyl]-2-methyl-5-[(2S)-2-(trifluoromethylsulfonylamino)propoxy]pyridine-3-carboxamide] |  | ≥ 80% | ≥ 80% |  |  |  |
| C[C@@H](COc1cnc(Cl)c(C(=O)NC2CC2)c1)NS(=O)(=O)C(F)F [Compound P-10, 2-chloro-N-cyclopropyl-5-[(2S)-2-(difluoromethylsulfonylamino)propoxy]pyridine-3-carboxamide] |  |  | ≥ 80% | ≥ 80% | ≥ 80% |  |
| Cc1cnc(OC[C@H](C)NS(=O)(=O)C(F)(F)F)cc1C(=O)NC12CC(C1)C2 [Compound P-66, N-(1-bicyclo[1.1.1]pentanyl)-5-methyl-2-[(2S)-2-(trifluoromethylsulfonylamino)propoxy]pyridine-4-carboxamide] |  |  |  |  |  | ≥ 80% |
| CC(NC(=O)c1cc(OC[C@H](C)NS(=O)(=O)C(F)(F)F)cnc1Cl)C1CC1 (stereo partly drawn) [Compound P-45, 2-chloro-N-(1-cyclopropylethyl)-5-[(2S)-2-(trifluoromethylsulfonylamino)propoxy]pyridine-3-carboxamide] | ≥ 80% |  |  | ≥ 80% | ≥ 80% |  |
| C[C@@H](COc1cc(C(=O)NC2CC2)c(Br)cn1)NS(=O)(=O)C(F)(F)F [Compound P-83, 5-bromo-N-cyclopropyl-2-[(2S)-2-(trifluoromethylsulfonylamino)propoxy]pyridine-4-carboxamide] | ≥ 80% |  | ≥ 80% | ≥ 80% |  |  |
| Cc1cc(Cl)cnc1NC(=O)c1cc(OC[C@H](C)NS(=O)(=O)C(F)(F)F)cnc1Cl [Compound P-20, 2-chloro-N-(5-chloro-3-methyl-2-pyridyl)-5-[(2S)-2-(trifluoromethylsulfonylamino)propoxy]pyridine-3-carboxamide] |  | ≥ 80% |  | ≥ 80% | ≥ 80% |  |
| C#CCNC(=O)c1cc(OC[C@H](C)NS(=O)(=O)C(F)(F)F)cnc1Cl [Compound P-52, 2-chloro-N-prop-2-ynyl-5-[(2S)-2-(trifluoromethylsulfonylamino)propoxy]pyridine-3-carboxamide] | ≥ 80% | ≥ 80% |  |  | ≥ 80% |  |
| Cc1cnc(OC[C@H](C)NS(=O)(=O)C(F)(F)F)cc1C(=O)NCCOc1ccccc1F [Compound P-71, N-[2-(2-fluorophenoxy)ethyl]-5-methyl-2-[(2S)-2-(trifluoromethylsulfonylamino)propoxy]pyridine-4-carboxamide] |  |  |  |  |  | ≥ 80% |
| C[C@@H](COc1cnc(Cl)c(C(=O)NC2CC2)c1)NS(=O)(=O)C(Cl)Cl [Compound P-4, 2-chloro-N-cyclopropyl-5-[(2S)-2-(dichloromethylsulfonylamino)propoxy]pyridine-3-carboxamide] | ≥ 80% |  |  | ≥ 80% | ≥ 80% |  |
